EP0624315B1, “Diaryl(pyridinio and isoquinolinio) boron fungicidal agents” (AMERICAN CYANAMID COMPANY, priority 1993, dated 1994)

Legend:
Pyricularia oryzae = assay type: in vivo; conditions: 200 ppm, host plants sprayed, dried, then inoculated
[1] = test system: Pseudocercosporella herpotrichoides (Psdche); assay: In vitro fungicidal evaluation, mycelial growth inhibition in nutrient broth; assay type: cell-based; conditions: 25 ppm, 3-4 days at 21°C, rated visually; also: ranges in brackets are in %
Procedure: (§1) Test compounds are dissolved or suspended in acetone and dispersed into cell well plates containing a suspension of ground fungal mycelia in a nutrient broth. Assay plates are incubated for 3-4 days at 21°C. Growth inhibition is measured visually and is rated using the following scale:
(§2) Untreated controls, solvent blanks and reference standards are included in each test.
(§3) Assay fungi include the plant pathogens, Pythium ultimum (Pythul); Rhizoctonia solani (Rhizso); Fusarium oxysporum f. sp. cucumerinum (Fusoxc); and Pseudocercosporella herpotrichoides (Psdche).
(§4) When more than one test is run, the data are averaged. The compouds evaluated are reported by compound number given in Example 5.

[2] = test system: Fusarium oxysporum f. sp. cucumerinum (Fusoxc); assay: as above; assay type: cell-based; conditions: 25 ppm, 3-4 days at 21°C, rated visually; also: ranges in brackets are in %
Procedure: as §1, §2, §3, §4

[3] = test system: Rhizoctonia solani (Rhizso); assay: as above; assay type: cell-based; conditions: 25 ppm, 3-4 days at 21°C, rated visually; also: ranges in brackets are in %
Procedure: as §1, §2, §3, §4

Pythium ultimum (Pythul) = assay: as above; assay type: cell-based; conditions: 25 ppm, 3-4 days at 21°C, rated visually; also: ranges in brackets are in %
Procedure: as §1, §2, §3, §4

Venturia inaequalis = assay: In vivo fungicidal evaluation, Apple Scab; conditions: 200 ppm, host plants sprayed, dried, then inoculated; also: ranges in brackets are in %
Plasmopara viticola = assay: In vivo fungicidal evaluation, Grape Downy Mildew; conditions: 200 ppm, host plants sprayed, dried, then inoculated; also: ranges in brackets are in %
Alternaria solani = assay: In vivo fungicidal evaluation, Tomato Early Blight; conditions: 200 ppm, host plants sprayed, dried, then inoculated; also: ranges in brackets are in %
[4] = test system: Diabrotica undecimpunctata howardi, 3rd instar southern corn rootworm; assay: Insecticide evaluation, southern corn rootworm soil test; assay type: in vivo; design: key: 0 = no effect; 1 = 10-25% kill; 2 = 26-35% kill; 3 = 36-45% kill; 4 = 46-55% kill; 5 = 56-65% kill; 6 = 66-75% kill; 7 = 76-85% kill; 8 = 86-99% kill; 9 = 100% kill; - = No evaluation; conditions: 50 kg/ha (1.25 mg active ingredient per jar), 6 days
Procedure: (§5) The following tests show the efficacy of the compounds as insecticides and acaricides. The evaluations are conducted with solutions of test compounds dissolved or dispersed in 50/50 acetone/water mixtures. The test compound is technical material dissolved or dispersed in said acetone/water mixtures in sufficient amounts to provide the concentrations set forth in Table I below. All concentrations reported herein are in terms of active ingredient. All tests are conducted in a laboratory maintained at about 27 °C. The rating system employed is as follows:
One cc of fine talc is placed in a 30 mL wide-mouth screw-top glass jar. One mL of the appropriate acetone test solution is pipetted onto the talc so as to provide 1.25 mg of active ingredient per jar. The jars are set under a gentle air flow until the acetone is evaporated. The dried talc is loosened, 1 cc of millet seed is added to serve as food for the insects and 25 mL of moist soil is added to each jar. The jars are capped and the contents thoroughly mixed on a Vortex Mixer. Following this, ten 3rd instar rootworms are added to each jar and the jars are loosely capped to allow air exchange for the larvae. The treatments are held for 6 days before mortality counts are made. Missing larvae are presumed dead, since they decompose rapidly and can not be found. The concentration used in this test corresponds to approximately 50 kg/ha.

Botrytis cinerea = assay: In vivo fungicidal evaluation, Pepper Botrytis; conditions: 200 ppm, host plants sprayed, dried, then inoculated; also: ranges in brackets are in %
[5] = test system: Spodoptera eridania 3rd instar larvae, southern army-worm; assay: Insecticide evaluation, southern armyworm leaf dip; assay type: in vivo; conditions: 5 days
Procedure: as §5
A sieva lima bean leaf expanded to 7 to 8 cm in length is dipped in the test suspension with agitation for 3 seconds and placed in a hood to dry. The leaf is then placed in a 100x10 mm petri dish containing a damp filter paper on the bottom and 10 3rd instar caterpillars. The dish is maintained for 5 days before observations are made of mortality, reduced feeding or any interference with normal moulting.

[6] = test system: Tetranychus urticae (OP-resistant strain), 2-spotted spider mite; assay: Acaricide evaluation, 2-spotted spider mite plant dip; assay type: in vivo; conditions: 300 ppm, 2 days, adult kill
Procedure: as §5
Sieva lima bean plants with primary leaves expaned to 7 to 8 cm are selected and cut back to one plant per pot. A small piece is cut from a leaf taken from the main colony and placed on each leaf of the test plants. This is done about 2 hours before treatment to allow the mites to move over to the test plant and to lay eggs. The size of the cut piece is varied to obtain about 100 mites per leaf. At the time of the treatment, the piece of leaf used to transfer the mites is removed and discarded. The mite-infested plants are dipped in the test formulation for 3 seconds with agitation and set in the hood to dry. Plants are kept for 2 days before estimates of adult kill are made.

[7] = test system: Erysiphe graminis f. sp. tritici; assay: In vivo fungicidal evaluation, Wheat Powdery Mildew; conditions: 200 ppm, host plants sprayed, dried, then inoculated; also: ranges in brackets are in %
[8] = test system: Puccinia recondita f. sp. tritici; assay: In vivo fungicidal evaluation, Wheat Leaf Rust; conditions: 200 ppm, host plants sprayed, dried, then inoculated; also: ranges in brackets are in %
Cercospora beticola = assay: In vivo fungicidal evaluation, Sugar Beet Cercospora; conditions: 200 ppm, host plants sprayed, dried, then inoculated; also: ranges in brackets are in %
[9] = test system: Heliothis virenscens, 3rd instar tobacco budworm; assay: Insecticide evaluation, tobacco budworm cotton cotyledon dip; assay type: in vivo; conditions: 300 ppm, 3 days
Procedure: as §5
Cotton cotyledons are dipped in the test formulation and allowed to dry in a hood. When dry, each is cut into quarters and ten sections placed individually in 30 mL plastic medicine cups containing a 5 to 7 mm long piece of damp dental wick. One 3rd instar caterpillar is added to each cup and a cardboard lid placed on the cup. Treatments are maintained for 3 days before mortality counts and estimates of reduction in feeding damage are made.

Molecule | RB (Rice Blast) disease control rating (Pyricularia oryzae) | PSDCHE growth inhibition rating [1] | FUSOXC growth inhibition rating [2] | RHIZSO growth inhibition rating [3] | PHTHUL growth inhibition rating (Pythium ultimum (Pythul)) | AS (Apple Scab) disease control rating (Venturia inaequalis) | GDM (Grape Downy Mildew) disease control rating (Plasmopara viticola) | TEB (Tomato Early Blight) disease control rating (Alternaria solani) | Southern Corn Rootworm kill rating [4] | PB (Pepper Botrytis) disease control rating (Botrytis cinerea) | Southern Armyworm kill rating ([5]; 1000 ppm) | OP. Res. Mites kill rating [6] | WPM (Wheat Powdery Mildew) disease control rating [7] | WLR (Wheat Leaf Rust) disease control rating [8] | SBC (Sugar Beet Cercospora) disease control rating (Cercospora beticola) | Southern Armyworm kill rating ([5]; 300 ppm) | Tobacco Budworm Larvae kill rating [9]
C[B-](c1ccccc1)(c1ccccc1)[n+]1cccc(Br)c1 [Compound 18, (3-Bromopyridinio)methyldiphenylboron] | 5 (60 - 74) | 9 (100) | 7 (90 - 99) | 7 (90 - 99) | 7 (90 - 99) | 0 (0) | 4 (45 - 59) | 4 (45 - 59) | 0 | 8 (96 - 99) | 9 (9 = 100% kill) | 7 (7 = 76-85% kill) | 0 (0) | 0 (0) | 6 (75 - 89) | – | –
(3-Ethyl-4-methylpyridinio)methyldiphenylboron [Compound 5] | 0 (0) | 9 (100) | 9 (100) | 9 (100) | 9 (100) | 0 (0) | 9 (100) | 8 (96 - 99) | 9 (9 = 100% kill) | 0 (0) | 9 (9 = 100% kill) | 8 (8 = 86-99% kill) | 9 (100) | 8 (96 - 99) | 0 (0) | – | –
(4-Bromoisoquinolinio)bis(p-fluorophenyl)methylboron [Compound 14] | 8 (96 - 99) | 9 (100) | 9 (100) | 9 (100) | 9 (100) | 8 (96 - 99) | 7 (90 - 95) | 0 (0) | 5 (5 = 56-65% kill) | 9 (100) | 9 (9 = 100% kill) | 9 (9 = 100% kill) | 0 (0) | 0 (0) | 7 (90 - 95) | – | –
(4-Isopropylpyridinio)methyldiphenylboron [Compound 1] | 7 (90 - 95) | 9 (100) | 9 (100) | 9 (100) | 7 (90 - 99) | 9 (100) | 9 (100) | 7 (90 - 95) | 0 | 7 (90 - 95) | – | 8 (8 = 86-99% kill) | 8 (96 - 99) | 8 (96 - 99) | 0 (0) | 8 (8 = 86-99% kill) | 8 (8 = 86-99% kill)
(Isoquinolinio)methyldiphenylboron [Compound 6] | 6 (75 - 89) | 9 (100) | 9 (100) | 7 (90 - 99) | 9 (100) | 9 (100) | 9 (100) | 0 (0) | 9 (9 = 100% kill) | 0 (0) | – | 8 (8 = 86-99% kill) | 8 (96 - 99) | 9 (100) | 0 (0) | 9 (9 = 100% kill) | 8 (8 = 86-99% kill)
Methyl(3-methylpyridinio)diphenylboron [Compound 2] | 7 (90 - 95) | 9 (100) | 9 (100) | 9 (100) | 9 (100) | 9 (100) | 9 (100) | 0 (0) | 9 (9 = 100% kill) | 0 (0) | 9 (9 = 100% kill) | 9 (9 = 100% kill) | 8 (96 - 99) | 8 (96 - 99) | 0 (0) | – | –
